Laboratory results from publication PMC11445189 (Frontiers in Toxicology, 2024).
Marks after values point to notes of the source that are not given here.

How the values were obtained:
sheepshead minnow = settings: acute toxicity, ref Gibbons et al., 2015; cited from earlier work
zebrafish embryos [1] = test: Single toxicity test for zebrafish embryos (ECx); format: in vivo; settings: for EC50: Danio rerio, 144 h, read-out: EC50 (95% CI); for EC50 / EC5 (95% CI) / EC15 (95% CI) / EC25 (95% CI): embryonic toxicity (lethality + abnormality), embryo-larva stage, 6 days exposure, probit; for toxicity to zebrafish embryos, individually: at high concentrations, 500 and 1,000 μg/mL
Method: (§1) Zebrafish embryos were obtained from adult zebrafish continuously sub-cultured in Korea Institute Toxicology Laboratory, Republic of Korea and were maintained at 26°C ± 1°C in a climate chamber (16 h daylight: 8 h darkness) until use for toxicity tests ([Park et al., 2022]). […] At 6 days after exposure, embryonic toxicity (%) was scored as follows: [embryonic toxicity (%) = lethality (dead embryo + dead larva) + abnormality (unhatched eggs + abnormal larva)/initial embryos × 100]. Developmental abnormality of zebrafish was investigated based on apical phenotypic observation, such as coagulated embryos, lack of somite formation, non-detachment of the tail, and lack of heartbeat for 6 days after exposure ([OECD, 2013]). Embryonic toxicity (%) was used for estimating the effective concentration values (ECx) for each chemical and 95% confidence limits, by concentration-response curves (CETIS program version 1.8.7.15, Tidepool Scientific Software, United States) ([Park et al., 2022]).

zebrafish embryos [2] = test: Realistic mixture toxicity test, embryonic toxicity; format: in vivo; settings: single chemical 10 ng/mL, 6 days after exposure
Method: as §1
To verify the developmental effects in zebrafish embryos caused by exposure to realistic mixtures, mixture toxicity tests with zebrafish embryos were performed at a range of environmentally relevant concentrations, and three exposure concentrations at a 1:1 mixing ratio (i.e., 1, 10, and 100 ng/mL of each chemical). […]

[3] = ref Mason et al., 2013, cited from earlier work
cyp1a1 = test: qRT-PCR transcriptional alteration in zebrafish embryos; format: in vivo; settings: single chemical 10 ng/mL, 6 days, normalized to β-actin
Method: (§2) To verify the developmental effects in zebrafish embryos caused by exposure to realistic mixtures, mixture toxicity tests with zebrafish embryos were performed at a range of environmentally relevant concentrations, and three exposure concentrations at a 1:1 mixing ratio (i.e., 1, 10, and 100 ng/mL of each chemical). […] Realistic mixture toxicity tests using zebrafish embryos were performed under the same conditions as the single-toxicity tests.
(§3) To examine the transcriptional alteration of target genes linked to zebrafish embryonic development, The total RNA from 20 zebrafish embryos was extracted using a RNeasy Mini kit (Qiagen, Hilden, Germany), following the manufacturer’s instructions. The total RNA concentration was measured spectrophoto-metrically at 260/280 nm using a Gen5™ spectrophotometer (BioTek®, Winooski, VT, United States). […]
(§4) The primer sequences for target genes were designed to use for quantitative real-time polymerase chain reaction (qRT–PCR): namely aryl hydrocarbon receptor 2 (ahr2), cytochrome P450 monooxygenases (i.e., cyp1a1 and cyp1b1), nuclear factor erythroid 2-related factors (i.e., nrf1a and nrf2a), tumor suppressor gene (p53), thyroid stimulating hormone beta subunit (tsh-β), and thyroid hormone receptors (i.e., thraa and thrb) (Supplementary Table S1) ([Fan et al., 2018]; [Liu et al., 2011]; [Ren et al., 2020]; [Williams et al., 2013]). […]

cyp1b1 = test: as above; format: in vivo; settings: single chemical 10 ng/mL, 6 days, normalized to β-actin
Method: as §2, §3, §4

Structure (SMILES)	50% lethal concentration (LC50) (sheepshead minnow)	EC50 (zebrafish embryos [1])	toxicity to zebrafish embryos, individually (zebrafish embryos [1])	EC5 (95% CI) (zebrafish embryos [1])	EC15 (95% CI) (zebrafish embryos [1])	EC25 (95% CI) (zebrafish embryos [1])	Embryonic toxicity (%) (zebrafish embryos [2])	half-life in sediment ([3]; sediment)	half-life in soil ([3]; soil)	Relative fold change of gene expression, cyp1a1 (cyp1a1)	Relative fold change of gene expression, cyp1b1 (cyp1b1)
O=[N+]([O-])NC1=NCCN1Cc1ccc(Cl)nc1 [IMD, imidacloprid]	93.6 µg/mL	268 µg/mL	toxic	60.80 (N.C.–108.36) µg/mL	145.69 (113.89–158.99) µg/mL	175.04 (146.25–196.54) µg/mL	12.5 ± 2.8%				
CN/C(=N\[N+](=O)[O-])NCc1cnc(Cl)s1 [CLO, Clothianidin]	161 µg/mL	411 µg/mL	toxic	65.28 (N.C.–104.61) µg/mL	255.72 (224.61–289.12) µg/mL	292.89 (247.77–332.07) µg/mL	12.5 ± 3.4%	56 days	up to 1,386 days	0.38±0.06^a	1.36±0.34^a
